# Key:
# pigweed = test: Test B pre/postemergence pigweed; type: in vivo, Amaranthus retroflexus
# Summary of the method: (§1)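 Test chemicals in a non-phytotoxic solvent mixture with surfactant were sprayed preemergence onto planted seeds and postemergence onto plants 2 to 18 cm tall (1- to 4-leaf stage). After twelve to sixteen days in a greenhouse, injury was visually rated against untreated controls from 0 (no effect) to 10 (complete control).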
# sugar beet = test: Test B pre/postemergence sugar beet; type: in vivo, Beta vulgaris
# Summary of the method: as §1
# corn = test: Test B pre/postemergence corn; type: in vivo, Zea mays
# Summary of the method: as §1
# rape = test: Test B pre/postemergence rape; type: in vivo, Brassica napus
# Summary of the method: as §1
# bedstraw = test: Test B pre/postemergence bedstraw; type: in vivo, Galium aparine
# Summary of the method: as §1
# bamyardgrass = test: Test B flood test barnyardgrass; type: in vivo, Echinochloa crus-galli
# Summary of the method: (§2)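 Each value is a visual injury score relative to controls, with 10 meaning complete control and 0 no effect. Evaluation took place twelve to sixteen days after the 2-leaf-stage plants were treated and kept in the greenhouse.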
# velvetleaf = test: Test B pre/postemergence velvetleaf; type: in vivo, Abutilon theophrasti
# Summary of the method: as §1
# cocklebur = test: Test B pre/postemergence cocklebur; type: in vivo, Xanthium strumarium
# Summary of the method: as §1
# crabgrass = test: Test B pre/postemergence crabgrass; type: in vivo, Digitaria sanguinalis
# Summary of the method: as §1
# morningglory = test: Test B pre/postemergence morningglory; type: in vivo, Ipomoea hederacea
# Summary of the method: as §1
# surinam grass = test: Test B pre/postemergence surinam grass; type: in vivo, Brachiaria decumbens
# Summary of the method: as §1
# wild oat = test: Test B pre/postemergence wild oat; type: in vivo, Avena fatua
# Summary of the method: as §1
# smallflower flatsedge = test: Test B flood test smallflower flatsedge; type: in vivo, Cyperus difformis
# Summary of the method: as §2
# blackgrass = test: Test B pre/postemergence blackgrass; type: in vivo, Alopecurus myosuroides
# Summary of the method: as §1
# giant foxtail = test: Test B pre/postemergence giant foxtail; type: in vivo, Setaria faberii
# Summary of the method: as §1
# rice = test: Test B flood test rice; type: in vivo, Oryza sativa
# Summary of the method: as §2
# [1] = Preemergence, Rate 62 g/ha, scale of 0 to 10 where 0 is no effect and 10 is complete control
# [2] = Preemergence, Rate 250 g/ha, scale of 0 to 10 where 0 is no effect and 10 is complete control
# [3] = Preemergence, Rate 500 g/ha, scale of 0 to 10 where 0 is no effect and 10 is complete control
# [4] = Rate 125 g/ha, Postemergence, scale of 0 to 10 where 0 is no effect and 10 is complete control
# [5] = Rate 125 g/ha, Preemergence, scale of 0 to 10 where 0 is no effect and 10 is complete control
# [6] = Rate 250 g/ha, Postemergence, scale of 0 to 10 where 0 is no effect and 10 is complete control
# [7] = Rate 500 g/ha, Postemergence, scale 0 to 10, 0 no effect, 10 complete control
# [8] = Rate 62 g/ha, Postemergence, scale of 0 to 10 where 0 is no effect and 10 is complete control
# [9] = Pre-emergence, Rate 1000 g/ha, scale 0 to 10 (0 no effect, 10 complete control)
# [10] = Rate 62 g/ha, headed Pre-emergence (flood test species), scale 0 to 10 (0 no effect, 10 complete control)
# [11] = Rate 125 g/ha, Pre-emergence, flood test species, scale 0 to 10 where 0 is no effect and 10 is complete control
# [12] = Rate 250 g/ha, Pre-emergence, flood-test species, scale 0 to 10, 0 is no effect, 10 is complete control
# [13] = Rate 500 g/ha, Pre-emergence, flood test species, scale 0 to 10 (0 no effect, 10 complete control)
# [14] = Rate 2000 g/ha, Pre-emergence (as headed), scale 0 to 10
compound,measurement,setting,value
CCN(C(=O)n1oc(=O)n(N(C)C)c1=O)C1CCCCC1 [Compound 274],Redroot pigweed plant response rating,pigweed; [1],0
same,Redroot pigweed plant response rating,pigweed; [2],0
same,"Plant response rating, Redroot pigweed",pigweed; [3],0
same,Redroot pigweed plant response rating,pigweed; [4],0
same,Redroot pigweed plant response rating,pigweed; [5],0
same,"Plant response rating, Redroot pigweed",pigweed; [6],1
same,Redroot pigweed plant response rating,pigweed; [7],1
same,Sugarbeets plant response rating,sugar beet; [1],0
same,Sugarbeets plant response rating,sugar beet; [2],0
same,"Plant response rating, Sugarbeets",sugar beet; [3],0
same,Sugarbeets plant response rating,sugar beet; [4],0
same,Sugarbeets plant response rating,sugar beet; [5],0
same,"Plant response rating, Sugarbeets",sugar beet; [6],0
same,Sugarbeets plant response rating,sugar beet; [7],1
same,Corn plant response rating,corn; [1],0
same,Corn plant response rating,corn; [2],0
same,"Plant response rating, Corn",corn; [3],0
same,Corn plant response rating,corn; [8],0
same,Corn plant response rating,corn; [4],0
same,Corn plant response rating,corn; [5],0
same,"Plant response rating, Corn",corn; [6],0
same,Corn plant response rating,corn; [7],0
same,Rape plant response rating,rape; [1],0
same,Rape plant response rating,rape; [2],0
same,"Plant response rating, Rape",rape; [3],0
same,Rape plant response rating,rape; [4],0
same,Rape plant response rating,rape; [5],0
same,"Plant response rating, Rape",rape; [6],0
same,Rape plant response rating,rape; [7],0
same,Bedstraw plant response rating,bedstraw; [1],0
same,Bedstraw plant response rating,bedstraw; [2],0
same,"Plant response rating, Bedstraw",bedstraw; [3],0
same,Bedstraw plant response rating,bedstraw; [8],0
same,Bedstraw plant response rating,bedstraw; [4],0
same,Bedstraw plant response rating,bedstraw; [5],0
same,"Plant response rating, Bedstraw",bedstraw; [6],0
same,Bedstraw plant response rating,bedstraw; [7],0
same,Barnyardgrass plant response rating,bamyardgrass; [9],0
same,Barnyardgrass plant response rating,bamyardgrass; [10],0
same,Barnyardgrass plant response rating,bamyardgrass; [11],0
same,Barnyardgrass plant response rating,bamyardgrass; [12],0
same,Barnyardgrass plant response rating,bamyardgrass; [13],0
same,Barnyardgrass plant response rating,"bamyardgrass; Rate 2000 g/ha, Pre-emergence (as headed), scale 0 to 10, 0 no effect, 10 complete control",0
same,Velvetleaf plant response rating,velvetleaf; [1],0
same,Velvetleaf plant response rating,velvetleaf; [2],0
same,"Plant response rating, Velvetleaf",velvetleaf; [3],0
same,Velvetleaf plant response rating,velvetleaf; [4],0
same,Velvetleaf plant response rating,velvetleaf; [5],0
same,"Plant response rating, Velvetleaf",velvetleaf; [6],0
same,Velvetleaf plant response rating,velvetleaf; [7],0
same,Cocklebur plant response rating,cocklebur; [1],0
same,Cocklebur plant response rating,cocklebur; [2],0
same,"Plant response rating, Cocklebur",cocklebur; [3],0
same,Cocklebur plant response rating,cocklebur; [8],0
same,Cocklebur plant response rating,cocklebur; [4],0
same,Cocklebur plant response rating,cocklebur; [5],0
same,"Plant response rating, Cocklebur",cocklebur; [6],0
same,Cocklebur plant response rating,cocklebur; [7],0
same,Crabgrass plant response rating,crabgrass; [1],0
same,Crabgrass plant response rating,crabgrass; [2],1
same,"Plant response rating, Crabgrass",crabgrass; [3],5
same,Crabgrass plant response rating,crabgrass; [4],0
same,Crabgrass plant response rating,crabgrass; [5],0
same,"Plant response rating, Crabgrass",crabgrass; [6],0
same,Crabgrass plant response rating,crabgrass; [7],0
same,Morningglory plant response rating,morningglory; [1],0
same,Morningglory plant response rating,morningglory; [2],0
same,"Plant response rating, Morningglory",morningglory; [3],0
same,Morningglory plant response rating,morningglory; [4],0
same,Morningglory plant response rating,morningglory; [5],0
same,"Plant response rating, Morningglory",morningglory; [6],0
same,Morningglory plant response rating,morningglory; [7],0
same,B. signalgrass plant response rating,surinam grass; [1],0
same,B. signalgrass plant response rating,surinam grass; [2],0
same,"Plant response rating, B. signalgrass",surinam grass; [3],0
same,B. signalgrass plant response rating,surinam grass; [8],0
same,B. signalgrass plant response rating,surinam grass; [4],0
same,B. signalgrass plant response rating,surinam grass; [5],0
same,"Plant response rating, B. signalgrass",surinam grass; [6],0
same,B. signalgrass plant response rating,surinam grass; [7],0
same,Wild oats plant response rating,wild oat; [1],0
same,Wild oats plant response rating,wild oat; [2],0
same,"Plant response rating, Wild oats",wild oat; [3],0
same,Wild oats plant response rating,wild oat; [4],0
same,"Plant response rating, Wild oats",wild oat; [6],0
same,Wild oats plant response rating,wild oat; [7],0
same,S. Flatsedge plant response rating,smallflower flatsedge; [9],0
same,S. Flatsedge plant response rating,smallflower flatsedge; [10],0
same,S. Flatsedge plant response rating,smallflower flatsedge; [11],0
same,S. Flatsedge plant response rating,smallflower flatsedge; [12],0
same,S. Flatsedge plant response rating,smallflower flatsedge; [13],0
same,S. Flatsedge plant response rating,smallflower flatsedge; [14],0
same,Blackgrass plant response rating,blackgrass; [1],0
same,Blackgrass plant response rating,blackgrass; [2],0
same,"Plant response rating, Blackgrass",blackgrass; [3],0
same,Blackgrass plant response rating,blackgrass; [8],0
same,Blackgrass plant response rating,blackgrass; [4],0
same,Blackgrass plant response rating,blackgrass; [5],0
same,"Plant response rating, Blackgrass",blackgrass; [6],0
same,Blackgrass plant response rating,blackgrass; [7],0
same,Giant foxtail plant response rating,giant foxtail; [1],0
same,Giant foxtail plant response rating,giant foxtail; [2],6
same,"Plant response rating, Giant foxtail",giant foxtail; [3],9
same,Giant foxtail plant response rating,giant foxtail; [4],0
same,Giant foxtail plant response rating,giant foxtail; [5],3
same,"Plant response rating, Giant foxtail",giant foxtail; [6],0
same,Giant foxtail plant response rating,giant foxtail; [7],0
same,Rice plant response rating,rice; [9],0
same,Rice plant response rating,rice; [10],0
same,Rice plant response rating,rice; [11],0
same,Rice plant response rating,rice; [12],0
same,Rice plant response rating,rice; [13],0
same,Rice plant response rating,rice; [14],0
